The target in this experiment is Histone deacetylase 2 (Homo sapiens) (UniProt Q92769). Nature of the experiment: Inhibition of human recombinant HDAC2.
Histone deacetylase 2 (Homo sapiens), sequence (Q92769 whole entry, looked up): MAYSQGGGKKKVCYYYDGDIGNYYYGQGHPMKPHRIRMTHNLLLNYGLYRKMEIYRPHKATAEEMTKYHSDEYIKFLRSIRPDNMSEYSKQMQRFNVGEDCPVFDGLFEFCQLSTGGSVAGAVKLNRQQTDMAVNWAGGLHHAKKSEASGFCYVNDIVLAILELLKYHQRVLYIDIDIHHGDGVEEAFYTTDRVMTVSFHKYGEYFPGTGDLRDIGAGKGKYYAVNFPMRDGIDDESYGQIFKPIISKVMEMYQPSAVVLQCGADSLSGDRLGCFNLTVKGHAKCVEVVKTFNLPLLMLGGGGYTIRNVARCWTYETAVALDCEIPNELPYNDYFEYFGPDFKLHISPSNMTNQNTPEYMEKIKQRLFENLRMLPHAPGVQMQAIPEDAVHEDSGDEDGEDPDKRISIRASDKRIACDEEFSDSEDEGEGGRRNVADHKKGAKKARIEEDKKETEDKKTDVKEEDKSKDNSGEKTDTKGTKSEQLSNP

For the compound `Cc1nc(-c2cccc(/C=C/C(=O)NO)c2)n(CCc2ccccc2)c1-c1ccccc1` [N-hydroxy-3-(3-(4-methyl-1-phenethyl-5-phenyl-1H-imidazol-2-yl)phenyl)acrylamide], the IC50 was determined as 7.9 nM.

Values taken from BindingDB's records for doi:10.1016/j.bmcl.2010.03.092 (Takeda California, 2010).
